{
  "source": "patent US20130190248A1",
  "about": "“S[…] ANALOGS” (AGENSYS, INC., priority 2011, published 2013)",
  "tested_on": "SW780 human bladder cancer cells",
  "assay": "In vivo efficacy in subcutaneously established human bladder cancer cell line SW780 implanted in ICR SCID mice",
  "details": "QW for 3 weeks, SW780 xenograft, male ICR SCID mice",
  "procedure": "Determination of In Vivo Efficacy of Test Compounds: Efficacy Evaluation in Subcutaneously Established Human Bladder Cancer Cell Line SW780 Implanted in ICR SCID Mice\nFor animal in vivo studies, the test compounds were diluted with 20 mM Histidine, 5% Sucrose, pH 6 with 15% DMSO. Male ICR SCID mice (Taconic Farm, Hudson, N.Y.) were housed in standard rodent micro isolator cages. Environment controls for the animal rooms were set to maintain a temperature between 68-75° F., a relative humidity between 30% to 70%, and an approximate 12 h light/12 h dark cycle. Food and water was provided ad libitum. After 72 h of acclimatization, the mice were implanted with SW780 human bladder cancer cells (2×10^6 cells/mouse), suspended in 50% complete cultrex (Trevigen, Inc.) mixed with 1×PBS (Gibco), and the tumor growth rate was monitored. When the average tumor volume reached ˜200 mm^3, tumors were size-matched and mice were randomized to treatment groups (n=8 or 10). The tumor-bearing mice were treated i.v. with Vehicle or test compound at 2 or 4 mg/kg (mpk) on a QW dosing schedule for 3 weeks. Tumor volume was assessed twice weekly using caliper measurement.",
  "note": "Where a SMILES comes first, the peptide text is derived from it. [ ]: non-standard residue; d: D form. The star is where a group is joined. Dolaproine = CO[C@@H]([C@@H]1CCCN1)[C@@H](C)C(=O)O; Dil = CC[C@H](C)[C@H](NC)[C@@H](CC(=O)O)OC; NH(2-(2-pyridyl)ethyl) = c1ccc(CCN*)nc1; NMeV = CN[C@H](C(=O)O)C(C)C",
  "data": [
    {"smiles": "CC[C@H](C)[C@@H]([C@@H](CC(=O)N1CCC[C@H]1[C@H](OC)[C@@H](C)C(=O)NCCc1ccccn1)OC)N(C)C(=O)[C@@H](NC(=O)[C@@H](NC)C(C)C)C(C)C", "note": "[Example 1, (S)—N-((3R,4S,5S)-3-Methoxy-1-((S)-2-((1R,2R)-1-methoxy-2-methyl-3-oxo-3-((2-(pyridin-2-yl)ethyl)amino)propyl)pyrrolidin-1-yl)-5-methyl-1-oxoheptan-4-yl)-N,3-dimethyl-2-((S)-3-methyl-2-(methylamino)butanamido)butanamide] (H-[NMeV]V[Dil][Dolaproine]-{NH(2-(2-pyridyl)ethyl)})", "values": [
      {"measurement": "effect on tumor growth (mean tumor volume versus days of treatment)", "setting": "2 mg/kg i.v.", "result": "tumor stasis"},
      {"measurement": "effect on tumor growth (mean tumor volume versus days of treatment)", "setting": "4 mg/kg i.v.", "result": "tumor stasis"}
    ]},
    {"smiles": "CC[C@H](C)[C@@H]([C@@H](CC(=O)N1CCC[C@H]1[C@H](OC)[C@@H](C)C(=O)NCCc1ccc(N)cc1)OC)N(C)C(=O)[C@@H](NC(=O)[C@H](C(C)C)N(C)C)C(C)C", "note": "[Example 22, (S)—N-((3R,4S,5S)-1-((S)-2-((1R,2R)-3-((4-aminophenethyl)amino)-1-methoxy-2-methyl-3-oxopropyl)pyrrolidin-1-yl)-3-methoxy-5-methyl-1-oxoheptan-4-yl)-2-((S)-2-(dimethylamino)-3-methylbutanamido)-N,3-dimethylbutanamide]", "values": [
      {"measurement": "effect on tumor growth (mean tumor volume versus days of treatment)", "setting": "2 mg/kg i.v.", "result": "tumor stasis"}
    ]}
  ]
}
